The NIST ThermoML archive (doi:10.1021/je060271a)
Numbers after ± are expanded uncertainties.

Settings: 323.15 K, Liquid, Vibrating tube method

CCCCC(=O)OCC(COC(=O)CCCC)(COC(=O)CCCC)COC(=O)CCCC [pentaerythritol tetrapentanoate]
Settings | mass density [kg/m3]
2620 kPa | 996.4 ± 1.2
2660.6 kPa | 996.5 ± 1.2
2696.9 kPa | 996.5 ± 1.2
2718.7 kPa | 996.6 ± 1.2
2740.2 kPa | 996.6 ± 1.2
2766.8 kPa | 996.6 ± 1.2
2789.3 kPa | 996.7 ± 1.2
2812.2 kPa | 996.6 ± 1.2
2835.1 kPa | 996.5 ± 1.2
2863.3 kPa | 996.6 ± 1.2
2886.9 kPa | 996.7 ± 1.2
2911 kPa | 996.7 ± 1.2
2989.9 kPa | 996.7 ± 1.2
3015.4 kPa | 996.6 ± 1.2
3041 kPa | 996.8 ± 1.2
3072.2 kPa | 996.8 ± 1.2
3098.9 kPa | 996.7 ± 1.2
3127.4 kPa | 996.8 ± 1.2
3156.2 kPa | 996.9 ± 1.2
3188.1 kPa | 996.9 ± 1.2
3211.7 kPa | 996.9 ± 1.2
3262.5 kPa | 996.8 ± 1.2
3273.9 kPa | 997 ± 1.2
3286 kPa | 997.1 ± 1.2
3299.4 kPa | 997 ± 1.2
3310.7 kPa | 996.9 ± 1.2
3322.8 kPa | 997 ± 1.2
3337.8 kPa | 996.9 ± 1.2
3347.6 kPa | 997 ± 1.2
3361.4 kPa | 997.1 ± 1.2
3373 kPa | 997 ± 1.2
3399.5 kPa | 997 ± 1.2
3411.5 kPa | 997.1 ± 1.2
3423.8 kPa | 997.1 ± 1.2
3438.5 kPa | 997.1 ± 1.2
3453.3 kPa | 997.1 ± 1.2
3522.2 kPa | 997 ± 1.2
3637.3 kPa | 997.2 ± 1.2
3714.9 kPa | 997.3 ± 1.2
3733.1 kPa | 997.2 ± 1.2
3751.4 kPa | 997.3 ± 1.2
3769.8 kPa | 997.4 ± 1.2
3791.1 kPa | 997.3 ± 1.2
3809.5 kPa | 997.4 ± 1.2
3828.4 kPa | 997.3 ± 1.2
3846.7 kPa | 997.3 ± 1.2
3869.1 kPa | 997.3 ± 1.2
3887.6 kPa | 997.3 ± 1.2
3909.9 kPa | 997.3 ± 1.2
3929 kPa | 997.5 ± 1.2
3947.9 kPa | 997.4 ± 1.2
3967.4 kPa | 997.4 ± 1.2
3987.2 kPa | 997.5 ± 1.2
4010 kPa | 997.4 ± 1.2
4029.3 kPa | 997.5 ± 1.2
4049 kPa | 997.5 ± 1.2
4072.7 kPa | 997.4 ± 1.2
4092.3 kPa | 997.5 ± 1.2
4112.7 kPa | 997.6 ± 1.2
4137.3 kPa | 997.5 ± 1.2
4158.1 kPa | 997.5 ± 1.2
4179.1 kPa | 997.6 ± 1.2
4200.2 kPa | 997.6 ± 1.2
4225 kPa | 997.6 ± 1.2
4246.8 kPa | 997.7 ± 1.2
4268.4 kPa | 997.5 ± 1.2
4290.2 kPa | 997.6 ± 1.2
4316 kPa | 997.7 ± 1.2
4337.7 kPa | 997.6 ± 1.2
4359.8 kPa | 997.7 ± 1.2
4382.3 kPa | 997.8 ± 1.2
4409 kPa | 997.7 ± 1.2
4431.7 kPa | 997.7 ± 1.2
4454.9 kPa | 997.7 ± 1.2
4478.1 kPa | 997.8 ± 1.2
4506.5 kPa | 997.9 ± 1.2
4529.8 kPa | 997.9 ± 1.2
4554.2 kPa | 997.9 ± 1.2
4579 kPa | 997.8 ± 1.2
4607.9 kPa | 998 ± 1.2
4632.1 kPa | 997.9 ± 1.2
4657.2 kPa | 998 ± 1.2
4688.4 kPa | 997.9 ± 1.2
4714.7 kPa | 997.9 ± 1.2
4741.5 kPa | 998 ± 1.2
4773.2 kPa | 998 ± 1.2
4800.4 kPa | 998 ± 1.2
4827.4 kPa | 998 ± 1.2
4855.4 kPa | 997.9 ± 1.2
4889.5 kPa | 998.1 ± 1.2
4918.2 kPa | 998.1 ± 1.2
4946.4 kPa | 998.1 ± 1.2
4975.1 kPa | 998.2 ± 1.2
4978.1 kPa | 998.3 ± 1.2
4995.6 kPa | 998.2 ± 1.2
4997.5 kPa | 998.3 ± 1.2
5038.8 kPa | 998.1 ± 1.2
5039.2 kPa | 998.3 ± 1.2
5039.4 kPa | 998.2 ± 1.2
5040 kPa | 998.2 ± 1.2
5040.7 kPa | 998.2 ± 1.2
5041.6 kPa | 998.2 ± 1.2
5042.1 kPa | 998.1 ± 1.2
5042.6 kPa | 998.2 ± 1.2
5044 kPa | 998.2 ± 1.2
5052.3 kPa | 998.3 ± 1.2
5059.4 kPa | 998.3 ± 1.2
5066.5 kPa | 998.4 ± 1.2
5073.8 kPa | 998.2 ± 1.2
5082.4 kPa | 998.2 ± 1.2
5089.7 kPa | 998.2 ± 1.2
5097 kPa | 998.3 ± 1.2
5105.8 kPa | 998.3 ± 1.2
5113.1 kPa | 998.3 ± 1.2
5120.5 kPa | 998.3 ± 1.2
5128 kPa | 998.3 ± 1.2
5134.7 kPa | 998.4 ± 1.2
5142.3 kPa | 998.3 ± 1.2
5150.8 kPa | 998.3 ± 1.2
5158.4 kPa | 998.2 ± 1.2
5166.2 kPa | 998.2 ± 1.2
5174.9 kPa | 998.3 ± 1.2
5182.5 kPa | 998.3 ± 1.2
5189.9 kPa | 998.3 ± 1.2
5197.3 kPa | 998.3 ± 1.2
5206 kPa | 998.3 ± 1.2
5213.8 kPa | 998.3 ± 1.2
5221.7 kPa | 998.3 ± 1.2
5229.5 kPa | 998.3 ± 1.2
5238.5 kPa | 998.5 ± 1.2
5246.1 kPa | 998.3 ± 1.2
5254.1 kPa | 998.4 ± 1.2
5261.5 kPa | 998.4 ± 1.2
5270.5 kPa | 998.3 ± 1.2
5278.7 kPa | 998.4 ± 1.2
5287.8 kPa | 998.4 ± 1.2
5295.3 kPa | 998.4 ± 1.2
5303 kPa | 998.5 ± 1.2
5312.6 kPa | 998.3 ± 1.2
5320.7 kPa | 998.4 ± 1.2
5329.2 kPa | 998.5 ± 1.2
5336.8 kPa | 998.3 ± 1.2
5345.1 kPa | 998.5 ± 1.2
5352.9 kPa | 998.5 ± 1.2
5362.7 kPa | 998.5 ± 1.2
5370.9 kPa | 998.4 ± 1.2
5379 kPa | 998.5 ± 1.2
5388.7 kPa | 998.4 ± 1.2
5397.1 kPa | 998.5 ± 1.2
5405.1 kPa | 998.5 ± 1.2
5413.1 kPa | 998.3 ± 1.2
5422.9 kPa | 998.5 ± 1.2
5431 kPa | 998.5 ± 1.2
5439.2 kPa | 998.5 ± 1.2
5449.6 kPa | 998.4 ± 1.2
5457.5 kPa | 998.4 ± 1.2
5465.6 kPa | 998.5 ± 1.2
5473.9 kPa | 998.4 ± 1.2
5483.8 kPa | 998.6 ± 1.2
5491.6 kPa | 998.5 ± 1.2
5499.5 kPa | 998.6 ± 1.2
